Laboratory results as given in BindingDB's records for doi:10.7270/Q2ZC817P (The Scripps Research Institute Molecular Screening Center, 2007).
Structures can show the parent of a compound that is named as a salt.

Each molecule was assayed against Sphingosine 1-phosphate receptor 1 (Homo sapiens, UniProt P21453) (assay: S1P1 agonism potentiation – cell-based, potentiator mode, 60K MLSMR set, dose response (AID 466)). Settings: not given.
Chain of Sphingosine 1-phosphate receptor 1 (P21453 whole entry): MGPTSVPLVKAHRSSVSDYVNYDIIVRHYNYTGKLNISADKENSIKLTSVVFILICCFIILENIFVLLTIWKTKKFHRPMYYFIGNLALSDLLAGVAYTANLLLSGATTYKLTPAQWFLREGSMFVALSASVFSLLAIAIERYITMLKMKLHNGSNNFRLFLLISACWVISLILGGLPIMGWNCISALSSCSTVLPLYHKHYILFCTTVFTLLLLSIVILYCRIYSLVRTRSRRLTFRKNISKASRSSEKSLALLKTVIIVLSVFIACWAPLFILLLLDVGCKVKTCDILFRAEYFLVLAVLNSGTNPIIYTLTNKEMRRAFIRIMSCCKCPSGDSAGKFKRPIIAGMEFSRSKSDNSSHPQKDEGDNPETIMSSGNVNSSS

Structure (SMILES)	EC50 [µM]
c1ccc2c(c1)oc1c(N3CCN(Cc4ccc5c(c4)OCO5)CC3)ncnc12	6.55
COC(=O)C1=CN(CCCN2CCCC2=O)C=C(C(=O)OC)C1c1ccccc1C(F)(F)F	> 95
CCC(NC(=O)Nc1nnc(C(F)(F)F)s1)(C(F)(F)F)C(F)(F)F	> 95
Cn1ncnc2c(=O)n(C)c(=O)nc1-2	1.73
O=C(Nc1ccc(N2CCCCC2)c(Cl)c1)c1nnc[nH]1	0.879
COc1ccc2[nH]c(=O)c3c(c2c1)OC(C)(C)C=C3	6.25
Oc1c(Cl)cc(Cl)cc1Sc1cc(Cl)cc(Cl)c1O	1.24
Cc1ccc2[nH]c3c(N4CCN(Cc5ccc6c(c5)OCO6)CC4)ncnc3c2c1	> 30
CC(C)OCCCNc1ncnc2c1[nH]c1ccc(F)cc12	5.48
CN1/C(=C/C(=O)c2nc(S(C)(=O)=O)ncc2Cl)C(C)(C)c2ccccc21	9.04
CCCCOC(=O)c1[nH]c2c(c1C)C(=O)CC(c1cc(OC)c(OC)c(OC)c1)C2 (centres undefined)	5.06
CCOC(=O)/C=C/S(=O)(=O)c1ccc(NC(C)=O)cc1	> 10
Cc1ccc(-c2n[nH]c(=S)n2C)cc1	> 95
Clc1ccc(NCn2cncn2)nc1	> 95
CCc1oc2ccccc2c1C(=O)c1cc(Br)c(O)c(Br)c1	5.13
CC1=NC(=O)NC(c2ccc(Cl)cc2)C1C(=O)OCc1ccc2c(c1)OCO2 (centres undefined) [1,3-benzodioxol-5-ylmethyl 4-(4-chlorophenyl)-6-methyl-2-oxidanylidene-3,4-dihydro-1H-pyrimidine-5-carboxylate]	> 0.3
CC1=NC(=O)NC(c2ccc(F)cc2)C1C(=O)OCc1ccc2c(c1)OCO2 (centres undefined) [1,3-benzodioxol-5-ylmethyl 4-(4-fluorophenyl)-6-methyl-2-oxidanylidene-3,4-dihydro-1H-pyrimidine-5-carboxylate]	0.631
O=C(Nc1ccc(OC(F)F)c(Cl)c1)Nc1ccc2c(c1)OCO2 [1-(1,3-benzodioxol-5-yl)-3-[3-chloro-4-(difluoromethoxy)phenyl]urea]	8.5
Cc1cccc(-c2nc(CSCC(=O)N3CCN(Cc4ccc5c(c4)OCO5)CC3)c(C)o2)c1 [1-(1,3-benzodioxol-5-ylmethyl)-4-[({[5-methyl-2-(3-methylphenyl)-1,3-oxazol-4-yl]methyl}thio)acetyl]piperazine]	5.42

Structure (SMILES)	EC50 [µM]
O=C(CCN1CCc2ccccc2CC1)c1ccc2c(c1)OCCO2 [1-(2,3-dihydro-1,4-benzodioxin-6-yl)-3-(1,2,4,5-tetrahydro-3-benzazepin-3-yl)-1-propanone;hydrochloride]	12.4
COc1ccc(-n2c(O)cc(Sc3nnc[nH]3)c2O)c(OC)c1 [1-(2,4-dimethoxyphenyl)-3-(1H-1,2,4-triazol-5-ylthio)pyrrolidine-2,5-dione]	16.4
Cc1ccc(-n2ncc3c(N4CCCC(C)C4)ncnc32)c(C)c1 (centres undefined) [1-(2,4-dimethylphenyl)-4-(3-methylpiperidin-1-yl)-1H-pyrazolo[3,4-d]pyrimidine]	8.81
CCOc1ccc(S(=O)(=O)N2CCN(c3ccc(C)cc3C)CC2)cc1 [1-(2,4-dimethylphenyl)-4-(4-ethoxyphenyl)sulfonyl-piperazine]	> 95
O=S(=O)(c1cccs1)N1CCN(CC(O)COc2cc(Cl)ccc2Cl)CC1 (centres undefined) [1-(2,5-dichlorophenoxy)-3-(4-thiophen-2-ylsulfonyl-1-piperazinyl)-2-propanol]	4.33
Cc1cc(C(=O)CSc2nnnn2-c2ccc(O)cc2)c(C)n1Cc1ccc2c(c1)OCO2 [1-(2,5-dimethyl-1-piperonyl-pyrrol-3-yl)-2-[[1-(4-hydroxyphenyl)tetrazol-5-yl]thio]ethanone]	6.14
CC1CCCC(C)N1C(=O)CN1CCN(c2nc(-c3ccc(F)cc3)cs2)CC1 (centres undefined) [1-(2,6-Dimethyl-piperidin-1-yl)-2-{4-[4-(4-fluoro-phenyl)-thiazol-2-yl]-piperazin-1-yl}-ethanone]	> 10
CCN(CC)C(=O)C1CCN(S(=O)(=O)c2ccc3oc4ccccc4c3c2)CC1 [1-(2-dibenzofuranylsulfonyl)-N,N-diethyl-4-piperidinecarboxamide]	> 30
Cc1occc1C(=O)N1CCN(c2ccc(Cl)c(Cl)c2)CC1 [1-(3,4-dichlorophenyl)-4-(2-methyl-3-furoyl)piperazine]	5.18
COc1ccc(S(=O)(=O)N2CCN(c3ccc(C)cc3C)CC2)cc1OC [1-(3,4-dimethoxyphenyl)sulfonyl-4-(2,4-dimethylphenyl)piperazine]	7.77
COc1cc(-c2noc(C3CCCN(S(=O)(=O)c4cccc(Cl)c4)C3)n2)cc(OC)c1OC (centres undefined) [1-(3-Chloro-benzenesulfonyl)-3-[3-(3,4,5-trimethoxy-phenyl)-[1,2,4]oxadiazol-5-yl]-piperidine]	2.6
CCCS(=O)(=O)c1nnnn1-c1cccc(OC)c1 [1-(3-methoxyphenyl)-5-(propylsulfonyl)-1H-tetrazole]	3.19
CCOc1ccc(S(=O)(=O)n2cnc3cc(C)c(C)cc32)cc1 [1-(4-Ethoxy-benzenesulfonyl)-5,6-dimethyl-1H-benzoimidazole]	8.29
N#Cc1ccc(NC(=O)Nc2ccc(Cl)cc2)cc1 [1-(4-chlorophenyl)-3-(4-cyanophenyl)urea]	7.91
Cc1cccc(NC(=O)Nc2ccc(C#N)cc2)n1 [1-(4-cyanophenyl)-3-(6-methyl-2-pyridinyl)urea]	> 30
COc1cc(CSc2nnnn2-c2ccc(C)cc2)cc(OC)c1OC [1-(4-methylphenyl)-5-[(3,4,5-trimethoxybenzyl)thio]-1H-tetrazole]	2.87
CCOC(=O)C1CCN(c2ncnc3c2oc2ccc(Cl)cc23)CC1 [1-(8-chloro-4-benzofuro[3,2-d]pyrimidinyl)-4-piperidinecarboxylic acid ethyl ester]	> 95
OC1(c2cccc(C(F)(F)F)c2)CCN(c2ncnc3c2[nH]c2ccc(F)cc23)CC1 [1-(8-fluoranyl-5H-pyrimido[5,4-b]indol-4-yl)-4-[3-(trifluoromethyl)phenyl]piperidin-4-ol]	4.41
O=C(Nc1cccc(C(F)(F)F)c1)C1CCCN1S(=O)(=O)c1cccc2cccnc12 (centres undefined) [1-(8-quinolinylsulfonyl)-N-[3-(trifluoromethyl)phenyl]-2-pyrrolidinecarboxamide]	5.41

Next, values leading:

EC50 [µM]	Structure (SMILES)
13.1	Oc1ccc(-c2nc(-c3ccc(O)c(O)c3)cs2)cc1
4.61	CCC1CCCCN1C(=O)CSc1nnc(-c2c[nH]c3ccccc23)o1 (centres undefined)
7.48	O=C(CSc1nnc(-c2c[nH]c3ccccc23)o1)N1c2ccccc2CCc2ccccc21
0.837	O=C(CSc1nnc(-c2c[nH]c3ccccc23)o1)N(Cc1ccccc1)c1ccc(F)cc1
9.52	Fc1ccc2[nH]c3c(N4CCN(c5ccccc5)CC4)ncnc3c2c1
1.59	c1ccc(CSc2nnc(-c3c[nH]c4ccccc34)o2)cc1
7.74	O=C(Cc1c[nH]c2ccccc12)N1CCc2ccccc21
6.13	Cc1cc(C(=O)CSc2nnc(-c3ccccc3)n2-c2ccccc2)c(C)n1-c1nnc[nH]1
3.42	CC1=NC(=O)NC(c2ccccc2)C1C(=O)OCc1ccc2c(c1)OCO2 (centres undefined) [1,3-benzodioxol-5-ylmethyl 6-methyl-2-oxidanylidene-4-phenyl-3,4-dihydro-1H-pyrimidine-5-carboxylate]
0.385	Cc1nn(-c2nc3ccccc3s2)c(N)c1-c1ccccc1 [1-(1,3-benzothiazol-2-yl)-3-methyl-4-phenyl-1H-pyrazol-5-amine]
> 95	CC(C)C(c1nnnn1Cc1ccccc1)N(Cc1ccco1)Cc1cccs1 (centres undefined) [1-(1-benzyltetrazol-5-yl)-N-(furan-2-ylmethyl)-2-methyl-N-(thiophen-2-ylmethyl)propan-1-amine]
4.19	Cc1cc(C(=O)CSc2nnc(-c3cccs3)o2)c(C)n1-c1ccccc1 [1-(2,5-dimethyl-1-phenyl-3-pyrrolyl)-2-[(5-thiophen-2-yl-1,3,4-oxadiazol-2-yl)thio]ethanone]
9.15	COc1ccccc1N=C(N)Nc1nc(CSc2ccc(C)cc2)cc(=O)[nH]1 [1-(2-methoxyphenyl)-2-[6-[[(4-methylphenyl)thio]methyl]-4-oxo-1H-pyrimidin-2-yl]guanidine]
31.1	COc1ccc(C(=O)C(CN2CCOCC2)c2ccccc2)cc1F (centres undefined) [1-(3-Fluoro-4-methoxy-phenyl)-3-morpholin-4-yl-2-phenyl-propan-1-one]
23.5	O=C(c1ccc(F)cc1)C(CN1CCOCC1)c1ccccc1 (centres undefined) [1-(4-fluorophenyl)-3-(4-morpholinyl)-2-phenyl-1-propanone;hydrochloride]

Same assay, conditions: inactive by the depositor's call

Structure (SMILES)	EC50 [µM]
CC1=CC(C)(C)Nc2ccc(OC(=O)c3ccco3)cc21	18
CCc1ccc(N(CC)c2ncnc3nc[nH]c23)cc1	14.7
Cc1n[nH]c(C)c1N1C(=O)c2cccc3c(N4CCCCCC4)ccc(c23)C1=O	12.5
COc1cccc(NC(=O)Nc2nnc(N3CCCCC3C)s2)c1 (centres undefined) [1-(3-methoxyphenyl)-3-[5-(2-methyl-1-piperidinyl)-1,3,4-thiadiazol-2-yl]urea]	11.5
CCCCOc1ccc(S(=O)(=O)n2c(C)nc3ccccc32)cc1 [1-(4-butoxyphenyl)sulfonyl-2-methyl-benzimidazole]	28.9

Now from value to molecule:

EC50 [µM]	Structure (SMILES)
23.5	O=S1(=O)C=C(Sc2nnc(-c3ccccc3)o2)c2ccccc21
12.3	CN1c2ccccc2C(C)(C)C12C=Cc1cc(O)ccc1O2 (centres undefined) [1',3',3'-trimethyl-6-spiro[1-benzopyran-2,2'-indole]ol]
10.3	C=CCn1c(C)cc(C(=O)CSc2nc3ccccc3o2)c1C [1-(1-allyl-2,5-dimethyl-pyrrol-3-yl)-2-(1,3-benzoxazol-2-ylthio)ethanone]
14.8	Cc1ccc(C)c(-n2nnnc2Sc2nnnn2-c2ccccc2)c1 [1-(2,5-dimethylphenyl)-5-(1-phenyltetrazol-5-yl)sulfanyltetrazole]
14.4	CC(C)Cn1c(=O)c(C(=O)Nc2ccccc2S(N)(=O)=O)c(O)c2ccccc21 [1-(2-methylpropyl)-2-oxidanyl-4-oxidanylidene-N-(2-sulfamoylphenyl)quinoline-3-carboxamide]
19.3	O=C1CC(N2CCN(C/C=C/c3ccccc3)CC2)C(=O)N1CCc1ccccc1 (centres undefined) [1-(2-phenylethyl)-3-[4-[(E)-3-phenylprop-2-enyl]-1-piperazinyl]pyrrolidine-2,5-dione]
